Test results: patent US9598398B2, “Heterocyclic compound” (TAKEDA PHARMACEUTICAL COMPANY LIMITED, priority 2013, dated 2017)

Molecular target: T1, human CH24H (Homo sapiens, UniProt Q9Y6A2)
T1 construct: Using Full-Length Mammalian Gene Collection No. 4819975 (Invitrogen) as a template; made in house; host or cells: FreeStyle 293-F cells, transient transfection with pcDNA3.1(+)/hCH24H; crude lysate supernatant
Assay: Measurement of CH24H inhibitory activity (24-HC produced from [14C] cholesterol by human CH24H lysate)
Format: biochemical
Settings: test compound 1 μM, [14C] cholesterol 15 μM, 37° C., 5 hr, read-out: Inhibitory Rate in 1 μM (%)
Description: A plasmid DNA for expressing human CH24H in a FreeStyle 293 cell was produced as follows. Using Full-Length Mammalian Gene Collection No. 4819975 (Invitrogen) as a template, and the following two kinds of synthesized DNAs:
PCR was performed to amplify 91-1625 bp region of human CH24H (BCO22539). The obtained fragment was cloned using TOPO TA Cloning Kit (Invitrogen). The obtained fragment was subcloned to pcDNA3.1(+) digested with BamHI and XhoI to give a plasmid DNA for human CH24H expression (pcDNA3.1(+)/hCH24H).
The expression of human CH24H was performed using FreeStyle 293 Expression System (Invitrogen). According to the manual attached to FreeStyle 293 Expression System and using the plasmid DNA for human CH24H expression (pcDNA3.1(+)/hCH24H) constructed in Experimental Example 1, a transient expression using FreeStyle 293-F cell was performed. After transfection, the cells were cultured at 37° C., 8% CO2 with shaking at 125 rpm for 2 days. The cells were collected by centrifugation, and suspended in a suspension buffer (100 mM potassium phosphate (pH 7.4), 0.1 mM EDTA, 1 mM DTT, 20% Glycerol). The suspended product was disrupted by a polytron homogenizer (manufactured by Kinematica), and centrifuged at 9000×g for 10 min, and the supernatant was collected. The collected supernatant was cryopreserved (−80° C.) as a human CH24H lysate standard product.
For the measurement of CH24H inhibitory activity, using the human CH24H lysate prepared in Experimental Example 2, the amount of 24-HC produced from cholesterol by catalytic activity of CH24H was measured in the presence of a test compound, and compared with that measured in the absence of the test compound. That is, a test compound solution at various concentrations was mixed with a reaction buffer (50 mM potassium phosphate containing 0.1% BSA and Complete, EDTA-free, pH 7.4) and human CH24H lysate. Then, [^14C] cholesterol (53 mCi/mmol specific activity, 15 μM) was added, and CH24H reaction was performed at 37° C. for 5 hr. After completion of the reaction, a quenching solution consisting of chloroform/methanol/distilled water (2:2:1 v/v) was added, and the resulting 24-HC was extracted by shaking. The extract was applied to silica gel thin layer chromatography (ethyl acetate:toluene=4:6), and the obtained ^14C-24HC fraction was measured with BAS2500 (Fujifilm Corporation).
The inhibitory rate (%) was calculated from the ratio of radioactivity in the presence of a test compound relative to the radioactivity in the absence of the test compound.

T1 sequence (Q9Y6A2 whole entry): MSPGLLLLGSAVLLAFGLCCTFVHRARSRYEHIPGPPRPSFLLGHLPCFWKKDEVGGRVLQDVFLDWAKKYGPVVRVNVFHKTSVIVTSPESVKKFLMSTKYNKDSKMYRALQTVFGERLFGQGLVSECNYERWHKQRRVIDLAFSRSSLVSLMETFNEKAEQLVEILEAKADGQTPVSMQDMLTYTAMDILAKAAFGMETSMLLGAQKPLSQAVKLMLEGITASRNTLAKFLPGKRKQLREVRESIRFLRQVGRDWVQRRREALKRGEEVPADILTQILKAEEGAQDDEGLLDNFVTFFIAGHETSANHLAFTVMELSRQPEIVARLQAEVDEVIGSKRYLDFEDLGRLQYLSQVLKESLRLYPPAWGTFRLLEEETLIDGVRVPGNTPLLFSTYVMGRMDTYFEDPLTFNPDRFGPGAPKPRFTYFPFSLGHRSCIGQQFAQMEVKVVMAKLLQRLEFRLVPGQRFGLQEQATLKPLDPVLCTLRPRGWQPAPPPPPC

Row | SMILES | inhibition at 1 µM
1 | COc1ccc(CN2CCN(C(=O)c3cc(C)ccc3-c3ccncc3)CC2)cc1 [Example 3, (4-(4-methoxybenzyl)piperazin-1-yl)(5-methyl-2-(pyridin-4-yl)phenyl)methanone] | 87%
2 | c1ccc(CN2CCC(Oc3cccnc3-c3ccncc3)CC2)cc1 [Example 4, 3-((1-benzylpiperidin-4-yl)oxy)-2,4′-bipyridine] | 86%
3 | Fc1ccc(OC2CCN(Cc3ccccc3)CC2)c(-c2ccncc2)c1 [Example 5, 4-(2-((1-benzylpiperidin-4-yl)oxy)-5-fluorophenyl)pyridine] | 92%
4 | c1ccc(CN2CCC(Oc3ccccc3-c3ccncn3)CC2)cc1 [Example 15, 4-(2-((1-benzylpiperidin-4-yl)oxy)phenyl)pyrimidine] | 94%
5 | Cn1ccnc1CN1CCC(Oc2ccccc2-c2ccncc2)CC1 [Example 16, 4-(2-((1-((1-methyl-1H-imidazol-2-yl)methyl)piperidin-4-yl)oxy)phenyl)pyridine] | 93%
6 | CN(C)C(=O)CN1CCC(Oc2ccccc2-c2ccncc2)CC1 [Example 20, N,N-dimethyl-2-(4-(2-(pyridin-4-yl)phenoxy)piperidin-1-yl)acetamide] | 83%
7 | Cn1cc(CN2CCC(Oc3cccnc3-c3ccncc3)CC2)cn1 [Example 22, 3-((1-((1-methyl-1H-pyrazol-4-yl)methyl)piperidin-4-yl)oxy)-2,4′-bipyridine] | 89%
8 | COc1ccc(CN2CCN(S(=O)(=O)c3ccc(F)cc3-c3ccncc3)CC2)cc1 [Example 29, 1-((4-fluoro-2-(pyridin-4-yl)phenyl)sulfonyl)-4-(4-methoxybenzyl)piperazine] | 59%
9 | FC1(F)CN(Cc2ccccc2)CCC1Oc1ccccc1-c1ccncn1 (stereo not shown) [Example 34, 4-(2-((1-benzyl-3,3-difluoropiperidin-4-yl)oxy)phenyl)pyrimidine] | 91%
10 | O=C(CN1CCC(Oc2cccnc2-c2ccncc2)CC1)N1CCOCC1 [Example 38, 2-(4-(2,4′-bipyridin-3-yloxy)piperidin-1-yl)-1-(morpholin-4-yl)ethanone] | 84%
11 | Cn1cc(CN2CCC(Oc3nccnc3-c3ccncc3)CC2)cn1 [Example 40, 2-((1-((1-methyl-1H-pyrazol-4-yl)methyl)piperidin-4-yl)oxy)-3-(pyridin-4-yl)pyrazine] | 88%
12 | c1cnc(-c2ccncc2)c(OC2CCN(Cc3cscn3)CC2)c1 [Example 47, 3-((1-(1,3-thiazol-4-ylmethyl)piperidin-4-yl)oxy)-2,4′-bipyridine] | 90%
13 | CCN(CC)C(=O)CN1CCC(Oc2cccnc2-c2ccncc2)CC1 [Example 49, 2-(4-(2,4′-bipyridin-3-yloxy)piperidin-1-yl)-N,N-diethylacetamide] | 85%
14 | CN(C)C(=O)CN1CCC(Oc2nccnc2-c2ccncc2)C(F)(F)C1 (stereo not shown) [Example 54, 2-(3,3-difluoro-4-((3-(pyridin-4-yl)pyrazin-2-yl)oxy)piperidin-1-yl)-N,N-dimethylacetamide] | 79%
15 | O=C1CN(Cc2ccc(F)cc2)CCN1Cc1cccnc1-c1ccncc1 [Example 55, 1-(2,4′-bipyridin-3-ylmethyl)-4-(4-fluorobenzyl)piperazin-2-one] | 53%
16 | c1ccc(CN2CCC(Oc3cccnc3-c3ccncc3)C2)cc1 (stereo not shown) [Example 61, 3-((1-benzylpyrrolidin-3-yl)oxy)-2,4′-bipyridine] | 89%
17 | COc1ccc(S(=O)(=O)N2CCC(Oc3cccnc3-c3ccncc3)C2)cc1 (stereo not shown) [Example 64, 3-((1-((4-methoxyphenyl)sulfonyl)pyrrolidin-3-yl)oxy)-2,4′-bipyridine] | 92%
18 | O=C(C1CC1)N1CCC(Oc2cccnc2-c2ccncc2)CC1 [Example 67, (4-(2,4′-bipyridin-3-yloxy)piperidin-1-yl)(cyclopropyl)methanone] | 80%
19 | Cn1cc(S(=O)(=O)N2CCC(Oc3cccnc3-c3ccncc3)C2)cn1 (stereo not shown) [Example 71, 3-((1-((1-methyl-1H-pyrazol-4-yl)sulfonyl)pyrrolidin-3-yl)oxy)-2,4′-bipyridine] | 89%
20 | COc1ccc(CC(=O)N2CCC(Oc3ccccc3-c3ccncn3)CC2)cc1 [Example 74, 2-(4-methoxyphenyl)-1-(4-(2-(pyrimidin-4-yl)phenoxy)piperidin-1-yl)ethanone] | 88%
21 | Cn1cc(S(=O)(=O)N2CCC(Oc3cc(F)ccc3-c3ccncn3)C2)cn1 (stereo not shown) [Example 84, 4-(4-fluoro-2-((1-((1-methyl-1H-pyrazol-4-yl)sulfonyl)pyrrolidin-3-yl)oxy)phenyl)pyrimidine] | 87%
22 | O=S(=O)(N1CCOCC1)N1CCC(Oc2cccnc2-c2ccncc2)C1 (stereo not shown) [Example 85, 3-((1-(morpholin-4-ylsulfonyl)pyrrolidin-3-yl)oxy)-2,4′-bipyridine] | 84%
23 | CCS(=O)(=O)N1CCC(Oc2cc(F)ccc2-c2ccncc2)C1 (stereo not shown) [Example 88, 4-(2-((1-(ethylsulfonyl)pyrrolidin-3-yl)oxy)-4-fluorophenyl)pyridine] | 82%
24 | O=S(=O)(c1ccc(F)cc1)N1CCC(Oc2nccnc2-c2ccncc2)C1 (stereo not shown) [Example 110, 2-((1-((4-fluorophenyl)sulfonyl)pyrrolidin-3-yl)oxy)-3-(pyridin-4-yl)pyrazine] | 89%
25 | O=S(=O)(c1ccccc1)N1CCC(Oc2cccnc2-c2ccncc2)C1 (stereo not shown) [Example 120, 3-((1-(phenylsulfonyl)pyrrolidin-3-yl)oxy)-2,4′-bipyridine] | 94%
26 | c1ccc(CN2CCC(Oc3cccnc3-c3ccncc3)CC2)nc1 [Example 124, 3-((1-(pyridin-2-ylmethyl)piperidin-4-yl)oxy)-2,4′-bipyridine] | 95%

Tested on: 24-HC in the brain extract
Assay: Quantification test of 24-HC in mouse brain after repeated oral administration
Format: in vivo
Settings: 10 mg/kg orally once a day for 3 days, female C57BL/6N mice; brain 24-HC at 16 hours after the third administration; relative to control group as 100%
Description: Animals used were 6-week-old female C57BL/6N mice (3 mice/group). A test compound was suspended in a 0.5% aqueous methylcellulose [133-14255 WAKO] solution (1 mg/mL). The body weight of the mice was measured, and the solution was forcibly administered orally and repeatedly once a day for 3 days. At 16 hours after the third administration, half of the brain was harvested, and the amount of 24-HC was measured.
The wet weight of the brain was measured, and the brain was homogenized with 4-fold amount of saline. This solution was used as a brain extract. The 24-HC in the brain extract was extracted with an acetonitrile solution (98% acetonitrile, 1.98% methanol, 0.02% formic acid), and quantified by HPLC. The average value of 24-HC amount was calculated and the results are shown in relative values with the control group as 100%.

Row | SMILES | Brain 24-HC level relative to control (%)
27 | Cn1cc(CN2CCC(Oc3nccnc3-c3ccncc3)CC2)cn1 [Example 40, 2-((1-((1-methyl-1H-pyrazol-4-yl)methyl)piperidin-4-yl)oxy)-3-(pyridin-4-yl)pyrazine] | 84%
28 | c1cnc(-c2ccncc2)c(OC2CCN(Cc3cscn3)CC2)c1 [Example 47, 3-((1-(1,3-thiazol-4-ylmethyl)piperidin-4-yl)oxy)-2,4′-bipyridine] | 75%
29 | CN(C)C(=O)CN1CCC(Oc2nccnc2-c2ccncc2)C(F)(F)C1 (stereo not shown) [Example 54, 2-(3,3-difluoro-4-((3-(pyridin-4-yl)pyrazin-2-yl)oxy)piperidin-1-yl)-N,N-dimethylacetamide] | 73%

Same assay, conditions: 30 mg/kg orally once a day for 3 days, female C57BL/6N mice; brain 24-HC at 16 hours after the third administration; relative to control group as 100%

Row | SMILES | Brain 24-HC level relative to control (%)
30 | Cn1cc(CN2CCC(Oc3cccnc3-c3ccncc3)CC2)cn1 [Example 22, 3-((1-((1-methyl-1H-pyrazol-4-yl)methyl)piperidin-4-yl)oxy)-2,4′-bipyridine] | 77%
31 | Cn1cc(S(=O)(=O)N2CCC(Oc3cccnc3-c3ccncc3)C2)cn1 (stereo not shown) [Example 71, 3-((1-((1-methyl-1H-pyrazol-4-yl)sulfonyl)pyrrolidin-3-yl)oxy)-2,4′-bipyridine] | 86%
